Source: US20260062443A1 (ALEXION PHARMACEUTICALS, INC., priority 2022, published 2026)
pIC50: −log10 of the molar value.

The compounds below were run against T1, Human complement C1s enzyme (Homo sapiens, UniProt P09871) (assay: Human C1s enzyme assay). Conditions: human complement C1s enzyme 1.16 nM, substrate Z-L-Lys-SBzl 100 μM, 5 min preincubation; read-out: IC50 (Stars), C1s Inhibiting Activity.
T1 sequence (P09871 438-688 limits assumed): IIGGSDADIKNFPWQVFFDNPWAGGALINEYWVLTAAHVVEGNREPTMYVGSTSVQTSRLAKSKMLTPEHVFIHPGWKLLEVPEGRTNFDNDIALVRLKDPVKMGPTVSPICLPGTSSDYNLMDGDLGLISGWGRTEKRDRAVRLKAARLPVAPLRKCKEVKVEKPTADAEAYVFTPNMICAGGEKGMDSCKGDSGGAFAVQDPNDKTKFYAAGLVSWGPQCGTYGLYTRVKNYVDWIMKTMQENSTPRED
T1 sequence (P09871 16-437 partner limits assumed): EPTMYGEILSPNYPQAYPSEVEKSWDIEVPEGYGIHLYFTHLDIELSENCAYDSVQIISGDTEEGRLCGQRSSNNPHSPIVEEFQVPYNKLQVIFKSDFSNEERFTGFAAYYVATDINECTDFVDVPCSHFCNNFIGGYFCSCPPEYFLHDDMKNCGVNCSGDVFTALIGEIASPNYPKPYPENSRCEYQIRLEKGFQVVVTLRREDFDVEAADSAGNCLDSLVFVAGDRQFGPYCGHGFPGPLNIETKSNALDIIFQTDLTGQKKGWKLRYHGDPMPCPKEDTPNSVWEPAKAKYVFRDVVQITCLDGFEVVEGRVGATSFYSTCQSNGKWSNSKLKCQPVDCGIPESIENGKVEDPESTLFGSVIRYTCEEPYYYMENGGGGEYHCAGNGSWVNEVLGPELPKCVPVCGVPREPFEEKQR
Type: biochemical
Procedure: Other standard complement assays are also available.
Human complement C1s enzyme (purified from human serum, Complement Technology, Inc.) at 1.16 nM final concentration was incubated with test compound at various concentrations for 5 min at room temperature in 50 mM Tris, 1 M NaCl, pH 7.5. A synthetic substrate Z-L-Lys-SBzl and DTNB (Ellman's reagent) were added to final concentrations of 100 μM each. Absorbance at 405 nm (A405) was recorded at 30 second intervals for 30 min using a microplate spectrophotometer. IC50 values were calculated by nonlinear regression of complement C1 s reaction rates as a function of test compound concentration.
ND indicates a compound for which the IC50 value is not determined.

pIC50 | Structure (SMILES)
> 7.00 | COC[C@@H]1C[C@@H](C(=O)NCc2cc3cnccc3[nH]2)N(C(=O)CNC(=O)c2cccc(Oc3ccc(C)cc3F)c2)C1 (relative stereo) [Compound 318, (2S,4R*)-N-((1H-pyrrolo[3,2-c]pyridin-2-yl)methyl)-1-((3-(2-fluoro-4-methylphenoxy)benzoyl)glycyl)-4-(methoxymethyl)pyrrolidine-2-carboxamide]
> 7.00 | CC(NC(=O)[C@@H]1CC2(CN1C(=O)CNC(=O)c1ccc3c(c1)Oc1ccccc1S3)OCCO2)c1cc2cnccc2[nH]1 (stereo in doubt) [Compound 102, (S)-N-((S)-1-(1H-pyrrolo[3,2-c]pyridin-2-yl)ethyl)-7-((phenoxathiine-3-carbonyl)glycyl)-1,4-dioxa-7-azaspiro[4.4]nonane-8-carboxamide]
< 6.00 | C[C@@]12C[C@@H]1N(C(=O)CNC(=O)c1ccc(Oc3ccccc3)cc1)[C@H](C(=O)NCc1cc3c(s1)C(N)=NCC3)C2 [Compound 1, (1S,3S,5S)-N-((7-amino-4,5-dihydrothieno[2,3-c]pyridin-2-yl)methyl)-5-methyl-2-((4-phenoxybenzoyl)glycyl)-2-azabicyclo[3.1.0]hexane-3-carboxamide]
> 7.00 | O=C(NCC(=O)N1CC2(C[C@H]1C(=O)NCc1cc3cnccc3[nH]1)OCCO2)c1ccc2c(c1)-c1ccccc1C2(F)F [Compound 2, (S)-N-((1H-pyrrolo[3,2-c]pyridin-2-yl)methyl)-7-((9,9-difluoro-9H-fluorene-3-carbonyl)glycyl)-1,4-dioxa-7-azaspiro[4.4]nonane-8-carboxamide]
< 6.00 | O=C(NCC(=O)N1CC2(C[C@H]1C(=O)NCc1cc3ccccc3[nH]1)OCCO2)c1ccc2c(c1)-c1ccccc1C2(F)F [Compound 3, (S)-N-((1H-indol-2-yl)methyl)-7-((9,9-difluoro-9H-fluorene-3-carbonyl)glycyl)-1,4-dioxa-7-azaspiro[4.4]nonane-8-carboxamide]
> 7.00 | O=C(NCC(=O)N1CC2(C[C@H]1C(=O)NCc1cc3cnccc3[nH]1)OCCO2)c1ccc2c(c1)Oc1ccccc1S2 [Compound 4, (S)-N-((1H-pyrrolo[3,2-c]pyridin-2-yl)methyl)-7-((phenoxathiine-3-carbonyl)glycyl)-1,4-dioxa-7-azaspiro[4.4]nonane-8-carboxamide]
> 7.00 | COC[C@@]1(F)C[C@@H](C(=O)NCc2cc3cnccc3[nH]2)N(C(=O)CNC(=O)c2ccc3c(c2)-c2ccccc2C3(F)F)C1 [Compound 5, (2S,4R)-N-((1H-pyrrolo[3,2-c]pyridin-2-yl)methyl)-1-((9,9-difluoro-9H-fluorene-3-carbonyl)glycyl)-4-fluoro-4-(methoxymethyl)pyrrolidine-2-carboxamide]
> 7.00 | O=C(NCC(=O)N1C[C@@](F)(CF)C[C@H]1C(=O)NCc1cc2cnccc2[nH]1)c1ccc2c(c1)-c1ccccc1C2(F)F [Compound 6, (2S,4R)-N-((1H-pyrrolo[3,2-c]pyridin-2-yl)methyl)-1-((9,9-difluoro-9H-fluorene-3-carbonyl)glycyl)-4-fluoro-4-(fluoromethyl)pyrrolidine-2-carboxamide]
> 7.00 | CS(=O)(=O)[C@@H]1C[C@@H](C(=O)NCc2cc3cnccc3[nH]2)N(C(=O)CNC(=O)c2ccc3c(c2)-c2ccccc2C3(F)F)C1 [Compound 7, (2S,4R)-N-((1H-pyrrolo[3,2-c]pyridin-2-yl)methyl)-1-((9,9-difluoro-9H-fluorene-3-carbonyl)glycyl)-4-(methylsulfonyl)pyrrolidine-2-carboxamide]
> 7.00 | O=C(NCC(=O)N1C[C@H](OC(F)F)C[C@H]1C(=O)NCc1cc2cnccc2[nH]1)c1ccc2c(c1)-c1ccccc1C2(F)F [Compound 8, (2S,4R)-N-((1H-pyrrolo[3,2-c]pyridin-2-yl)methyl)-1-((9,9-difluoro-9H-fluorene-3-carbonyl)glycyl)-4-(difluoromethoxy)pyrrolidine-2-carboxamide]
6.00 to 7.00 | O=C(NCC(=O)N1CC2(C[C@H]1C(=O)NCc1cc3ccncc3[nH]1)OCCO2)c1ccc2c(c1)-c1ccccc1C2(F)F [Compound 9, (S)-N-((1H-pyrrolo[2,3-c]pyridin-2-yl)methyl)-7-((9,9-difluoro-9H-fluorene-3-carbonyl)glycyl)-1,4-dioxa-7-azaspiro[4.4]nonane-8-carboxamide]
< 6.00 | O=C(NCC(=O)N1CC2(C[C@H]1C(=O)NCc1cc3cccnc3[nH]1)OCCO2)c1ccc2c(c1)-c1ccccc1C2(F)F [Compound 10, (S)-N-((1H-pyrrolo[2,3-b]pyridin-2-yl)methyl)-7-((9,9-difluoro-9H-fluorene-3-carbonyl)glycyl)-1,4-dioxa-7-azaspiro[4.4]nonane-8-carboxamide]
< 6.00 | O=C(NCC(=O)N1CC2(C[C@H]1C(=O)NCc1cc3ccccc3[nH]1)OCCO2)c1ccc(Oc2ccccc2)cc1 [Compound 11, (S)-N-((1H-indol-2-yl)methyl)-7-((4-phenoxybenzoyl)glycyl)-1,4-dioxa-7-azaspiro[4.4]nonane-8-carboxamide]
< 6.00 | O=C(NCC(=O)N1CC2(C[C@H]1C(=O)NCc1ccn[nH]1)OCCO2)c1ccc(Oc2ccccc2)cc1 [Compound 12, (S)-N-((1H-pyrazol-5-yl)methyl)-7-((4-phenoxybenzoyl)glycyl)-1,4-dioxa-7-azaspiro[4.4]nonane-8-carboxamide]
< 6.00 | C[C@@]12C[C@@H]1N(C(=O)CNC(=O)c1ccc(Oc3ccccc3)cc1)[C@H](C(=O)NCc1cccc(Cl)c1Cl)C2 [Compound 13, (1S,3S,5S)-N-(2,3-dichlorobenzyl)-5-methyl-2-((4-phenoxybenzoyl)glycyl)-2-azabicyclo[3.1.0]hexane-3-carboxamide]
< 6.00 | O=C(NCC(=O)N1CC2(C[C@H]1C(=O)NCc1ccc[nH]1)OCCO2)c1ccc(Oc2ccccc2)cc1 [Compound 14, (S)-N-((1H-pyrrol-2-yl)methyl)-7-((4-phenoxybenzoyl)glycyl)-1,4-dioxa-7-azaspiro[4.4]nonane-8-carboxamide]
< 6.00 | O=C(NCC(=O)N1CC2(C[C@H]1C(=O)NCc1ncc[nH]1)OCCO2)c1ccc(Oc2ccccc2)cc1 [Compound 15, (S)-N-((1H-imidazol-2-yl)methyl)-7-((4-phenoxybenzoyl)glycyl)-1,4-dioxa-7-azaspiro[4.4]nonane-8-carboxamide]
< 6.00 | O=C(NCC(=O)N1CC2(C[C@H]1C(=O)NCc1cc3cncnc3[nH]1)OCCO2)c1ccc2c(c1)-c1ccccc1C2(F)F [Compound 16, (S)-N-((7H-pyrrolo[2,3-d]pyrimidin-6-yl)methyl)-7-((9,9-difluoro-9H-fluorene-3-carbonyl)glycyl)-1,4-dioxa-7-azaspiro[4.4]nonane-8-carboxamide]
> 7.00 | O=C(NCC(=O)N1CC2(C[C@H]1C(=O)NCc1cc3cnccc3[nH]1)OCCO2)c1ccc(-c2ccccc2)cc1 [Compound 17, (S)-N-((1H-pyrrolo[3,2-c]pyridin-2-yl)methyl)-7-(([1,1′-biphenyl]-4-carbonyl)glycyl)-1,4-dioxa-7-azaspiro[4.4]nonane-8-carboxamide]
> 7.00 | O=C(NCC(=O)N1C[C@H](OC(F)F)C[C@H]1C(=O)NCc1cc2cnccc2[nH]1)c1ccc(Oc2ccccc2)cc1 [Compound 18, (2S,4R)-N-((1H-pyrrolo[3,2-c]pyridin-2-yl)methyl)-4-(difluoromethoxy)-1-((4-phenoxybenzoyl)glycyl) pyrrolidine-2-carboxamide]
< 6.00 | O=C(NCC(=O)N1CC2(C[C@H]1C(=O)NCc1cc3cc(Cl)ccc3[nH]1)OCCO2)c1ccc2c(c1)Oc1ccccc1S2 [Compound 19, (S)-N-((5-chloro-1H-indol-2-yl)methyl)-7-((phenoxathiine-3-carbonyl)glycyl)-1,4-dioxa-7-azaspiro[4.4]nonane-8-carboxamide]
> 7.00 | O=C(CCCOc1ccccc1)NCC(=O)N1CC2(C[C@H]1C(=O)NCc1cc3cnccc3[nH]1)OCCO2 [Compound 20, (S)-N-((1H-pyrrolo[3,2-c]pyridin-2-yl)methyl)-7-((4-phenoxybutanoyl)glycyl)-1,4-dioxa-7-azaspiro[4.4]nonane-8-carboxamide]
< 6.00 | COC[C@@]1(F)C[C@@H](C(=O)N[C@@H](C)c2cc3cnccc3[nH]2)N(C(=O)CNC(=O)c2ccc(Oc3ccccc3)cc2)C1 [Compound 21, (2S,4R)-N-((S)-1-(1H-pyrrolo[3,2-c]pyridin-2-yl)ethyl)-4-fluoro-4-(methoxymethyl)-1-((4-phenoxybenzoyl)glycyl)pyrrolidine-2-carboxamide]
6.00 to 7.00 | C[C@H](NC(=O)[C@@H]1C[C@@H](OC(F)F)CN1C(=O)CNC(=O)c1ccc(Oc2ccccc2)cc1)c1cc2cnccc2[nH]1 [Compound 22, (2S,4R)-N-((S)-1-(1H-pyrrolo[3,2-c]pyridin-2-yl)ethyl)-4-(difluoromethoxy)-1-((4-phenoxybenzoyl)glycyl) pyrrolidine-2-carboxamide]
